Experimental data as given in ChEMBL document CHEMBL5375983, “Discovery of YSR734: A Covalent HDAC Inhibitor with Cellular Activity in Acute Myeloid Leukemia and Duchenne Muscular Dystrophy” (J Med Chem, 2023).
The source made the active and inactive calls. The calls are words filed in the database; no cut-off is given here.

Columns and labels:
[1] = tested on: MV4-11; experiment: Induction of apoptosis in human MV4-11 cells assessed as healthy cells at 1 uM measured after 6 hrs by annexin V-FITC/PI staining based FACS assay (reference value: 63.50%); format: functional
[2] = tested on: MV4-11; experiment: Induction of apoptosis in human MV4-11 cells assessed as healthy cells at 4 uM measured after 6 hrs by annexin V-FITC/PI staining based FACS assay (reference value: 63.50%); format: functional
[3] = molecular target: Histone deacetylase 2 (Mus musculus) (UniProt P70288); experiment: Inhibition of HDAC2 in mouse C2C12 cells at 5 uM incubated for 72 hrs by immunofluorescence analysis; format: cell-based
Histone deacetylase 2 (Mus musculus), sequence (P70288 whole entry): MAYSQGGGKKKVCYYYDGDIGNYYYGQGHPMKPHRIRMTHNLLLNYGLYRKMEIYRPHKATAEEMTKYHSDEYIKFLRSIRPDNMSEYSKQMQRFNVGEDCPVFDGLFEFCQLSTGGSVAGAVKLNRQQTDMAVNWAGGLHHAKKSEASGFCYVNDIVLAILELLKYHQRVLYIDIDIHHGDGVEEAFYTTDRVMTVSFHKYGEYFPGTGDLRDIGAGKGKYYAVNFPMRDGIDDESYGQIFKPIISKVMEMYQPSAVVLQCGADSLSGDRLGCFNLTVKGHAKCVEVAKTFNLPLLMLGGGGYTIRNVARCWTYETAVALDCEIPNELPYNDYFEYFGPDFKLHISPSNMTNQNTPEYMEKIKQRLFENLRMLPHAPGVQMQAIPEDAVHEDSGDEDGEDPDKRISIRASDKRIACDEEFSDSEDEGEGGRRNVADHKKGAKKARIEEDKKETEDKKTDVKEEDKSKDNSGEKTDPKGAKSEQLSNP

[4] = Glutathione reactivity assessed as compound consumption at 500 nM measured after 1 to 3 hrs by LC-MS/MS analysis; format: ADME; conditions: glutathione solution, time 1-3 hrs, read-out: Activity
[5] = molecular target: Histone deacetylase 2 (Homo sapiens, UniProt Q92769); experiment: Binding affinity to recombinant full length HDAC2 catalytic domain Cys274 (unknown origin) assessed as formation of single covalent adduct at 50 uM incubated for 2 hrs by trypsin-digest protein mapping analysis
Histone deacetylase 2, sequence (Q92769 whole entry, the tested form may be a part): as the sequence (P70288 whole entry) above, with A289V, P477T, A480T counted along it

[6] = molecular target: T1, Histone deacetylase 1 (Homo sapiens, UniProt Q13547); experiment: Inhibition of HDAC1 (unknown origin) using 6-carboxyfluorescein peptide as substrate preincubated with compound followed by substrate addition by electrophoretic mobility shift assay
T1 sequence (Q13547 whole entry): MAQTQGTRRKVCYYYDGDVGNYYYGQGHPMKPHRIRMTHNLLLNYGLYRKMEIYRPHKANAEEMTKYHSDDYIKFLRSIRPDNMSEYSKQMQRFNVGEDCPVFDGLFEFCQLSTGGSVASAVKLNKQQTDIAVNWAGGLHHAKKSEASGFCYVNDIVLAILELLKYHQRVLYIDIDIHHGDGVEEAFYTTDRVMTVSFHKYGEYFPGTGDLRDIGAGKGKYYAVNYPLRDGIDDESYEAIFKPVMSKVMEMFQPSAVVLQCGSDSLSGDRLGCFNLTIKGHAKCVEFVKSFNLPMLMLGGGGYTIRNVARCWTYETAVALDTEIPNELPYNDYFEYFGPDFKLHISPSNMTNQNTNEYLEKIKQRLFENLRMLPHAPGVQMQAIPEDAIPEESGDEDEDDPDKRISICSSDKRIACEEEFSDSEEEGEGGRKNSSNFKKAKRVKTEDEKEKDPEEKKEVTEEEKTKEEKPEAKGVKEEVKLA

[7] = molecular target: T1, Histone deacetylase 1; experiment: Inhibition of HDAC1 (unknown origin) using 6-carboxyfluorescein peptide as substrate preincubated with compound for 6 hrs followed by substrate addition by electrophoretic mobility shift assay
[8] = molecular target: Histone deacetylase 3 (Homo sapiens, UniProt O15379); experiment: Inhibition of full length recombinant human HDAC3 expressed in Sf9 cells using 6-carboxyfluorescein peptide as substrate preincubated with compound for 6 hrs followed by substrate addition and measured after 3 hrs by electrophoretic mobility shift assay; format: cell-based
Histone deacetylase 3, sequence (O15379 whole entry): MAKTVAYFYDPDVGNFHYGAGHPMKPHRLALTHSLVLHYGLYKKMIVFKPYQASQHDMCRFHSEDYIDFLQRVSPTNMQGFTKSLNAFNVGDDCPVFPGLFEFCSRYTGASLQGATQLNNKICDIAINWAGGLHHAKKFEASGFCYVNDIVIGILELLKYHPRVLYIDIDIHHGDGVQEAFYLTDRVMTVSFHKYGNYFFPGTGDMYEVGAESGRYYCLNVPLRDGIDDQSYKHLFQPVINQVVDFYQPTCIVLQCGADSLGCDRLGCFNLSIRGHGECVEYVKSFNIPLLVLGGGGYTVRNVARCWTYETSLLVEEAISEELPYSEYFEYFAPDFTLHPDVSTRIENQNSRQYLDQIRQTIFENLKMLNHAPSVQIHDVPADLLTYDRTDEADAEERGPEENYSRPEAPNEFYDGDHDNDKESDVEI

[9] = molecular target: T2, Histone deacetylase 8 (Homo sapiens, UniProt Q9BY41); experiment: Inhibition of full length recombinant human HDAC8 expressed in Sf9 cells using 6-carboxyfluorescein peptide as substrate preincubated with compound followed by substrate addition and measured after 3 hrs by electrophoretic mobility shift assay
T2 sequence (Q9BY41 whole entry): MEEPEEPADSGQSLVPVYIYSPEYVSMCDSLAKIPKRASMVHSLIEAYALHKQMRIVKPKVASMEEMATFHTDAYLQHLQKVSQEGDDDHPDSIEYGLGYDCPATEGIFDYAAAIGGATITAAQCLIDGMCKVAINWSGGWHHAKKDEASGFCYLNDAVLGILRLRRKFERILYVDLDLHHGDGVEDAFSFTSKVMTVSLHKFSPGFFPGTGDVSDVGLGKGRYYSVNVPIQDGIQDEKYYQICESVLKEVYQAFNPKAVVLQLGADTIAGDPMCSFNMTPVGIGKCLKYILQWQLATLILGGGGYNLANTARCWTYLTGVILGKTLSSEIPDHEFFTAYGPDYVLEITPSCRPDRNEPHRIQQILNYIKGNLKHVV

[10] = molecular target: Histone deacetylase 4 (Homo sapiens, UniProt P56524); experiment: Inhibition of HDAC4 (unknown origin) using 6-carboxyfluorescein peptide as substrate preincubated with compound for 6 hrs followed by substrate addition by electrophoretic mobility shift assay
Histone deacetylase 4, sequence (P56524 whole entry): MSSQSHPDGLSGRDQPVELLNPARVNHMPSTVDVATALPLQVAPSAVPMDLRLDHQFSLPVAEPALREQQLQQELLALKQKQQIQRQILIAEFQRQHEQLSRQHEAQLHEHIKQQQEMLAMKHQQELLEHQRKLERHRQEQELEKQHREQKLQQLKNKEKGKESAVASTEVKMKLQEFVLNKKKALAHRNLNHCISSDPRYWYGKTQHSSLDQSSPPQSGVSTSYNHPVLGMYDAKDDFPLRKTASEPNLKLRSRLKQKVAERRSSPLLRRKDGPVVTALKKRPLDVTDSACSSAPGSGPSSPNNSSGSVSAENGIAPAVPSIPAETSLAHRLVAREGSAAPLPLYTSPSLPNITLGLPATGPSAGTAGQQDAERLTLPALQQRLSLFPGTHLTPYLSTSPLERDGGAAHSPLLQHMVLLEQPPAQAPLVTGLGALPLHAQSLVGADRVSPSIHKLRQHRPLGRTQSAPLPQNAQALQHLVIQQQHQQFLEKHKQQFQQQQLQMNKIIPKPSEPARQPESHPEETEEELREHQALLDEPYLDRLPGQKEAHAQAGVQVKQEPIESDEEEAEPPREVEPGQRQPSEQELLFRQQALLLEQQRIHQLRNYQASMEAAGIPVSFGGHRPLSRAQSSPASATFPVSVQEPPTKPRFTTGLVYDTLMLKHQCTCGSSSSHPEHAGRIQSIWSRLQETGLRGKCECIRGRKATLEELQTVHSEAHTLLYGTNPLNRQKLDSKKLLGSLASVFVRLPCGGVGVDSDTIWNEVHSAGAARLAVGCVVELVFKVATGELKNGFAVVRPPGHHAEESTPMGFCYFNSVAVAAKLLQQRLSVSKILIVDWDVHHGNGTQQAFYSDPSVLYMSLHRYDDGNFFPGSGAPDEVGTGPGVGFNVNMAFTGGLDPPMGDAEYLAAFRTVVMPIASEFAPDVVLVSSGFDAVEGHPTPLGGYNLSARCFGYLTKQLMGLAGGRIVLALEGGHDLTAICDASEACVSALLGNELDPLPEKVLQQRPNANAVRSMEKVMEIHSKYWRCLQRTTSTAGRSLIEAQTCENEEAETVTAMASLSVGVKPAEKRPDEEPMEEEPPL

[11] = molecular target: Histone deacetylase 9 (Homo sapiens, UniProt Q9UKV0); experiment: Inhibition of HDAC9 (unknown origin) using 6-carboxyfluorescein peptide as substrate preincubated with compound for 6 hrs followed by substrate addition by electrophoretic mobility shift assay
Histone deacetylase 9, sequence (Q9UKV0 whole entry): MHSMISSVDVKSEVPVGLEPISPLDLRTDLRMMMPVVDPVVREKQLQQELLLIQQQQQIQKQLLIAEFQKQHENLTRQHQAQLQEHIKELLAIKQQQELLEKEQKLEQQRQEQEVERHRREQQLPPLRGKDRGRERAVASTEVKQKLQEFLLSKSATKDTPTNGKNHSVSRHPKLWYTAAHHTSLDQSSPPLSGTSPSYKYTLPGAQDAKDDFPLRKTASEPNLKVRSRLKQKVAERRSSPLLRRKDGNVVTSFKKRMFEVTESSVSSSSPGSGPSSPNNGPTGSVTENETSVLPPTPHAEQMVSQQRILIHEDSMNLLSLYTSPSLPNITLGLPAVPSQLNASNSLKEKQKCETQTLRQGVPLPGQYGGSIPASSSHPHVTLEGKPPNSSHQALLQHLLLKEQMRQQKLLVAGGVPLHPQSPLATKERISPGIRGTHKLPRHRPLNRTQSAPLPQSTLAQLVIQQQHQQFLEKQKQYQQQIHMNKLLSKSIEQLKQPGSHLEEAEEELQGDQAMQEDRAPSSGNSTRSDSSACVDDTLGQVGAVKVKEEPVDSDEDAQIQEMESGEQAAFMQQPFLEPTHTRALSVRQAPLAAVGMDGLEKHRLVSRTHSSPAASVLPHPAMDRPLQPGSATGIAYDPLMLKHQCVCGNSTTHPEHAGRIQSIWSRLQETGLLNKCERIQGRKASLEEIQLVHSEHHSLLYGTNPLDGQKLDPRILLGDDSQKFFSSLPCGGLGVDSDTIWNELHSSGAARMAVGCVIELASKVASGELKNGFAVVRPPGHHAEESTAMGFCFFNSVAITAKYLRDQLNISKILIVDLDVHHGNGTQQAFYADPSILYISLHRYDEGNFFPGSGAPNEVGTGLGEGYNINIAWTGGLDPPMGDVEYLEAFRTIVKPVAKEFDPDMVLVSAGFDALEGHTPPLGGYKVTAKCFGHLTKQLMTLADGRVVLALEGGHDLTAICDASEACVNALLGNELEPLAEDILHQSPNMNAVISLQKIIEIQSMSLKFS

[12] = molecular target: T3, Polyamine deacetylase HDAC10 (Homo sapiens, UniProt Q969S8); experiment: Inhibition of HDAC10 (unknown origin) using 6-carboxyfluorescein peptide as substrate preincubated with compound for 6 hrs followed by substrate addition by electrophoretic mobility shift assay
T3 sequence (Q969S8 whole entry): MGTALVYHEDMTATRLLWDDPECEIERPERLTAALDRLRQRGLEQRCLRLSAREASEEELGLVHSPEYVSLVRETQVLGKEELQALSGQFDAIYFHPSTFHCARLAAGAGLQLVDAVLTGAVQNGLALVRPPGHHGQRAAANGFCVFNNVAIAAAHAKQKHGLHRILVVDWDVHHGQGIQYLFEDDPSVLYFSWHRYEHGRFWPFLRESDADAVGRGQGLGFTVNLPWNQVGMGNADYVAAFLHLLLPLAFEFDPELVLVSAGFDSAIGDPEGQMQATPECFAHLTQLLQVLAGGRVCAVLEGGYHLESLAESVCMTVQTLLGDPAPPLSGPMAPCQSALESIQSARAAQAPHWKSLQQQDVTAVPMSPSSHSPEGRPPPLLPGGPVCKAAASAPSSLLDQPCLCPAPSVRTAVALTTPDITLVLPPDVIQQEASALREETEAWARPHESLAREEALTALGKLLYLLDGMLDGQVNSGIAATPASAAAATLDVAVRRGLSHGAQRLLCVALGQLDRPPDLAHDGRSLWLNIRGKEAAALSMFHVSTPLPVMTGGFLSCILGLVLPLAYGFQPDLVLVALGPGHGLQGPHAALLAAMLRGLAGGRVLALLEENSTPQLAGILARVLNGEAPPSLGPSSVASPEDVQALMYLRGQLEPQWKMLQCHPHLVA

With `Nc1ccccc1NC(=O)c1ccc(CNC(=O)OC2CCN(S(=O)(=O)c3c(F)c(F)c(F)c(F)c3F)CC2)cc1` the Activity [1] was 23.54%, the Activity [2] was 4.57% and the inhibition [3] was “Active”. For the same compound, the degraded at 0.5 µM [4] was > 50%, the Activity [5] was “Active” and the IC50 [6] was 242 nM. The IC50 [7] was 109 nM, the IC50 [8] was 143 nM and the IC50 [9] was > 10000 nM. The IC50 [10] was > 10000 nM, the IC50 [11] was > 10000 nM and the IC50 [12] was > 10000 nM.
